Laboratory results: a melting point compilation (Tetko et al.; mined from patent text by program, amines drawn as free bases though some values may be those of a salt)

Row | melting point [°C] | SMILES
1 | 52 to 53 | CCCCCCCCCCCCCCCNC(=O)OCCOCCOC(=O)N(Cc1ccccn1)C(=O)OCC
2 | 158 | COc1ccc(CN(C)CCCSc2ccc(NC(=O)c3cccc4c(=O)c5cccc(C)c5[nH]c34)cc2)cc1OC
3 | 154 to 155 | O=C(CCCl)c1cc2c3c(c1)CCN3C(=O)CC2
4 | 82 to 84 | CCCCCCCCn1c2cc(I)ccc2c2ccc(I)cc21
5 | 205 to 209 | COc1ccc2c(c1OC)CCN(Cc1ccc(-c3ccc(-c4cccc(N)n4)cc3)cc1)C2
6 | 28 to 30 | COC(=O)c1ccc(Br)cc1Cl
7 | 170 to 171 | N#Cc1cc(NC(=O)c2cccn2-c2ccc(F)cc2)ccc1N1CCN(CCO)CC1
8 | 217 to 219 | O=P(O)(O)Cc1ccc(S(=O)(=O)c2ccccc2)cc1
9 | 142 to 144 | CC(O)c1ccc(OCCCN2CCC(c3noc4cc(F)ccc34)CC2)c(O)c1 (configuration not stated)
10 | 130 to 140 | COc1ccc(C2C(=O)NC(C)(C(C)C)C2=O)c(Cl)c1 (configuration not stated)
11 | 320 to 324 | O=C(O)Cc1c[nH]c2cc(C(F)(F)F)nn2c1=O
12 | 116 to 117 | O=S(=O)(NCc1ccccc1)c1ccc(Br)cc1
13 | 136 to 137 | CN(c1ccccc1)c1nc(Cl)c([N+](=O)[O-])s1
14 | 163 to 165 | COc1ccc2c(c1)CCC(CN1CCC(O)(c3ccccc3)CC1)C2=O (configuration not stated)
15 | 206 to 207 | CN1CCCCc2cc(-c3cnc(N)nc3N)ccc21
16 | 233 to 237 | CCN1CCCC1CNC(=O)CCCOc1ccc2nc3[nH]c(=O)[nH]c3cc2c1 (configuration not stated)
17 | 200 to 203 | Nc1ccn2nc(-c3cccc(F)c3)nc2c1
18 | 72 | CCCCCC(=O)N(Cc1ccccc1)c1nc(C)ns1
19 | 141 to 142 | C=C(N=[N+]=[N-])c1cn(COCCO)c(=O)[nH]c1=O
20 | 113 to 115 | COCn1nc(-c2cc(C(C)(C)C)c(O)c(C(C)(C)C)c2)c2cccnc21
21 | 199 to 201 | Cc1cc(Cl)cc2c(=O)oc(-c3cc(Cl)nn3-c3ncccc3Cl)nc12
22 | 102 | CCc1ccc2oc(Cc3cccc(OC)c3)c(CCNC(C)=O)c2c1
23 | 162 to 164 | O=c1oc(-c2ccccc2)cc(O)c1SCc1ccc2c(c1)OCO2

Row | melting point [°C] | SMILES
24 | 148 to 150 | CCOC(=O)C(O)=Cc1ccc(S(=O)c2ccc(F)cc2)cn1 (configuration not stated)
25 | 139 to 141 | CCOCc1nc2c(N)nc(C)c(C)c2n1NC1CCC1
26 | 152 to 153 | O=C(c1ccc(F)cc1)c1cccnc1C(=O)O
27 | 161 to 162 | Cc1ccc(Sc2c(Sc3ccc(C)cc3)c(Sc3ccc(C)cc3)c(C(O)=NCCO)c(C(=O)O)c2Sc2ccc(C)cc2)cc1
28 | 204 to 205 | CC(=O)Nc1ccc(OCc2nc3ccc(F)cc3s2)cc1
29 | 78 to 81 | C=CCOC(=O)c1c(C)nc2c(cnn2C/C=C\CC)c1N
30 | 162 to 164 | O=C1OCCC1=Cc1ccccc1O
31 | 202 to 204 | NC(=O)c1ccc(-c2ccc3nnn(Cc4cc5cccnc5cc4F)c3n2)cc1Cl
32 | 233 to 235 | O=C1NC(=O)C(=Cc2cccc(OCc3ccccc3)c2)S1
33 | 30 to 31 | CCOC(=O)c1c(C(F)F)nc(C(F)(F)F)c(C(=O)OCC)c1NC(C)(C)C
34 | 131 to 144 | Cc1cc(F)ccc1-c1nc(NCCNC(=O)NC2CCCCC2)nc2c1ccc(=O)n2-c1c(F)cccc1F
35 | 175 to 177 | c1cc2c3c(c1)CNc1ccccc1N3CC2
36 | 92 to 93 | O=C1CCc2c1cnn2Cc1ccccc1
37 | 127 to 130 | CC1CCN(S(=O)(=O)c2cc(C#N)ccc2Oc2cc(Cl)ccc2Cl)CC1
38 | 71.3 | O=C(c1ccccc1)c1ccc([N+](=O)[O-])c(CO)c1
39 | 161 to 162 | CCOC(=O)c1cc2c(C)c(C)cc(NS(=O)(=O)c3cccs3)c2[nH]1
40 | 177 to 179 | COC(=O)C1(C(N)=O)C(C(N)=O)=NC(c2ccccc2)=C1N (configuration not stated)
41 | 59 to 60 | CCOC(=O)c1ccc(C#CCc2ccc3c(c2)C(C)(C)CCC3(C)C)cc1
42 | 75.5 to 79.5 | COc1ccc(C=O)cc1OC1CC2CCC1C2 (configuration not stated)
43 | 204 to 207 | O=C1N(C(c2ccccc2)c2ccccc2)c2ccccc2C12COc1ccc(-c3cccnc3)cc12 (configuration not stated)
44 | 212 | CCCCN1C(=O)NC(=Cc2ccc(C(=O)OC)cc2)C1=O
45 | 112 to 114 | N#CCCN(C=O)CC(=O)O
46 | 173 to 175 | NC(=S)c1ncn(C2OC(CO)C(O)C2O)n1 (configuration not stated)

Row | melting point [°C] | SMILES
47 | 245 to 247 | Cn1cc(S(C)=O)c(=O)c2ccc(Cl)cc21 (configuration not stated)
48 | 43 to 46 | OCCCCCc1ccc2ccccc2c1O
49 | 208 to 209 | Cc1ccc(S(=O)(=O)Oc2c(Cl)cc(C3=NNC(=O)CC3)cc2Cl)cc1
50 | 125 to 126 | CC(CSc1cc(C(C)(C)C)c(O)c(C(C)(C)C)c1)C(=O)N1CCCC1 (configuration not stated)
51 | 147 to 148 | O=c1[nH]c(=O)n(Cc2cccc(OCc3noc(-c4ccc(F)cc4)n3)c2)o1
52 | 144 | CCN(CC)CCNC(=O)c1ccc(N(S(C)(=O)=O)S(C)(=O)=O)cc1OC
53 | > 260 | N=C(N)Nc1nc2cc(Cl)c(Cl)cc2[nH]1
54 | 156 to 157 | CN(C)CCCNC1=C2N=c3cc(Cl)ccc3=C2Oc2ccccc2N1C
55 | 155 to 157 | CCOC(=O)C1=C(C)NC(SCc2ccc(OC)cc2)=NC1c1cccc([N+](=O)[O-])c1Cl (configuration not stated)
56 | 280 to 282 | O=C1Nc2c(O)cccc2C(=O)N2CCCC12 (configuration not stated)
57 | 143 to 145 | O=[N+]([O-])c1ccc(-c2nsc(Cl)n2)cc1
58 | 159 to 161 | CCOC(=O)N1C=CC(c2c(-c3ccc(F)cc3)nc3c(C)c(C)c(Cl)nn23)C=N1 (configuration not stated)
59 | 87 to 88 | COc1ccc(C(=O)c2ccc(OCc3nc(-c4ccccc4)oc3C)cc2)c(OC(C(=O)O)C(C)C)c1 (configuration not stated)
60 | 247 to 249 | CC(C)(C)OC(=O)N[C@H]1CCN(c2nc3c(cc2F)c(=O)c(C(=O)O)cn3C2CC2)C1
61 | 174 to 175 | CCN1C(=O)C(C)(C)C(=O)N(C)c2cc(CN(CCn3cc(C)c4sccc4c3=O)Cc3cnccc3C)ccc21
62 | 158 | CCCc1nc(C)n2nc(S(=O)(=O)N(C)C)nc2c1Cc1ccc(-c2ccccc2C#N)cc1
63 | 177 to 180 | CCc1nc2c(O)c(CCC(=O)c3ccccc3)c(C(=O)N(C)C)cc2n1C
64 | 141 to 142 | CCOC(=O)C(=O)CC(=O)c1cn(Cc2ccccc2)c2ccccc2c1=O
65 | 240 | O=C(C1CCCCC1)C1CCN(C(=O)c2cc(O)c(O)cc2[N+](=O)[O-])CC1
66 | 140 to 141 | CCCc1nn(C)c2c(=O)[nH]c(-c3ccccc3OC)nc12
67 | 77 to 79 | CCCCn1c(=O)c2[nH]ncc2n(CCC(C)C)c1=O
68 | > 250 | N#Cc1ccc2c(c1)NC(=O)C(O)C2 (configuration not stated)

Row | SMILES | melting point [°C]
69 | CN(C(=O)c1ccc(Cl)c(Cl)c1)C1CCN(C)C12CCCCC2 (configuration not stated) | 138 to 140
70 | CCC12CCC(=O)C3Oc4c(O)ccc5c4C31CCN(CC1CC1)C2C5 (configuration not stated) | 157 to 158
71 | CCC1c2cc(OC)c(OC)cc2C(c2ccc(OC)c(OC)c2)=NNC1C (configuration not stated) | 120 to 122
72 | CCC1C(C)=NN=C(c2ccc(O)c(OC)c2)c2cc(OC)c(OC)cc21 (configuration not stated) | 130 to 132
